{
  "source": "ChEMBL document CHEMBL1144219",
  "about": "“Synthesis of new 4-[2-(4-methyl(amino)sulfonylphenyl)-5-trifluoromethyl-2H-pyrazol-3-yl]-1,2,3,6-tetrahydropyridines: a search for novel nitric oxide donor anti-inflammatory agents” (2008)",
  "key": {"Rattus norvegicus [1]": {"system": "Rattus norvegicus", "test": "Antiinflammatory activity against po dosed carrageenan-induced rat foot paw edema model", "format": "functional"}, "Rattus norvegicus [2]": {"system": "Rattus norvegicus", "test": "Antiinflammatory activity against carrageenan-induced rat foot paw edema model at 100 mg/kg, po", "format": "functional"}},
  "note": "Calls of active or inactive are those of the source. The rule behind the calls is not given here.",
  "data": [
    {"smiles": "CS(=O)(=O)c1ccc(-n2nc(C(F)(F)F)cc2C2=CCNCC2)cc1", "values": [
      {"measurement": "ED50", "setting": "Rattus norvegicus [1]", "result": 129, "unit": "mg/kg"}
    ]},
    {"smiles": "CCOC(=O)N1CC=C(c2cc(C(F)(F)F)nn2-c2ccc(S(N)(=O)=O)cc2)CC1", "values": [
      {"measurement": "Activity", "setting": "Rattus norvegicus [2]", "result": "inactive"}
    ]},
    {"smiles": "CN1CC=C(c2cc(C(F)(F)F)nn2-c2ccc(S(N)(=O)=O)cc2)CC1", "values": [
      {"measurement": "ED50", "setting": "Rattus norvegicus [1]", "result": 61.2, "unit": "mg/kg"}
    ]},
    {"smiles": "NS(=O)(=O)c1ccc(-n2nc(C(F)(F)F)cc2C2=CCNCC2)cc1", "values": [
      {"measurement": "inhibition in vivo at 100 mg/kg", "setting": "Rattus norvegicus [2]", "result": 7.1, "unit": "%"}
    ]},
    {"smiles": "CN1CC=C(c2cc(C(F)(F)F)nn2-c2ccc(S(C)(=O)=O)cc2)CC1", "values": [
      {"measurement": "ED50", "setting": "Rattus norvegicus [1]", "result": 95.3, "unit": "mg/kg"}
    ]},
    {"smiles": "CC(=O)Oc1ccccc1C(=O)O", "note": "[ASPIRIN]", "values": [
      {"measurement": "ED50", "setting": "Rattus norvegicus [1]", "result": 129, "unit": "mg/kg"}
    ]},
    {"smiles": "CS(=O)(=O)c1ccc(-n2nc(C(F)(F)F)cc2C2=CCN(N=O)CC2)cc1", "values": [
      {"measurement": "ED50", "setting": "Rattus norvegicus [1]", "result": 115, "unit": "mg/kg"}
    ]},
    {"smiles": "CCOC(=O)N1CC=C(c2cc(C(F)(F)F)nn2-c2ccc(S(C)(=O)=O)cc2)CC1", "values": [
      {"measurement": "inhibition in vivo at 100 mg/kg", "setting": "Rattus norvegicus [2]", "result": 24.1, "unit": "%"}
    ]}
  ]
}
